`COc1cc(CC(=O)N2CCC[C@H]2COc2ccc(C(=O)O)cc2F)ccc1NC(=O)Nc1ccccc1C` (stereo in doubt) [Compound 38, 3-fluoro-4-[[1-[3-methoxy-4-[N′-(2-methylphenyl)ureido]phenylacetyl]-2-pyrrolidinyl]methoxy]benzoic acid]: the melting point – broadly, the temperature, or range, at which the solid turns liquid – fell in the range of 123 to 126 °C.
To `Cc1ccccc1NC(=O)Nc1ccc(CC(=O)N[C@@H](C)COc2ccc(C(=O)O)cc2Cl)cc1` [Compound 274, (S)-3-chloro-4-[2-[4-[N′-(2-methylphenyl)ureido]phenylacetylamino]-1-propoxy]benzoic acid] belongs 228 to 231 °C; to `COc1cc(CC(=O)N(C)CCOc2ccc(C(=O)O)cc2N)ccc1NC(=O)Nc1ccccc1C` [Compound 290, 3-amino-4-[[2-[3-methoxy-4-[N′-(2-methylphenyl)ureido]phenylacetyl]methylamino]ethoxy]benzoic acid], 125 to 130 °C; to `COc1cc(CC(=O)N2CCC[C@H]2C(=O)NC2CCC(C(=O)O)CC2)ccc1NC(=O)Nc1ccccc1Cl` (stereo in doubt) [Compound 181, 4-[[1-[4-[N′-(2-chlorophenyl)ureido]-3-methoxylphenylacetyl]-2-pyrrolidinyl]carbonylamino]cyclohexanecarboxylic acid], 135 to 140 °C.
To `COc1cc(CC(=O)N2CC(F)(F)C[C@H]2COc2ccc(C(=O)O)cc2)ccc1NC(=O)Nc1ccccc1C` (stereo in doubt) [Compound 139, 4-[4,4-difluoro-1-[3-methoxy-4-[N′-(2-methylphenyl)ureido]phenylacetyl]-2-pyrrolidinylmethoxy]benzoic acid] belongs 135 to 140 °C.
To `COc1cc(CC(=O)N2C[C@H](O)C[C@H]2COc2ccc(C(=O)O)cc2)ccc1NC(=O)Nc1ccccc1Cl` [Compound 109] belongs 137 to 142 °C; to `O=C(Nc1ccc(CC(=O)N2C[C@@H](F)C[C@H]2COc2ccc(C(=O)O)cc2)cc1)Nc1c(Cl)cccc1Cl` [Compound 87, 4-[1-[4-[N′-(2,6-dichlorophenyl)ureido]phenylacetyl]-(4S)-fluoro-(2S)-pyrrolidinyl]methoxy benzoic acid], 168 to 172 °C (dec.); to `COc1cc(CC(=O)N2C[C@@H](Oc3ccc(C(=O)O)cc3)C[C@H]2COc2ccc(C(=O)O)cc2)ccc1NC(=O)Nc1ccccc1C` [Compound 116, 4-[(4S)-(4-carboxyphenoxy)-1-[3-methoxy-4-[N′-(2-methylphenyl)uriedo]phenylacetyl]-(2S)-pyrrolidinylmethoxy]benzoic acid], 154 to 159 °C.
The compound `Cc1ccccc1NC(=O)Nc1ccc(CC(=O)N2CCCC2/C=C/c2ccc(C(=O)O)cc2)cc1` (stereo not shown) [Compound 6, (E)-4-[2-[1-[4-[N′-(2-methylphenyl)ureido]phenylacetyl]-2-pyrrolidinyl]ethenyl]benzoic acid] came in with a melting point of 165 to 168 °C.
The compound `COc1cc(CC(=O)N2CC(N)C[C@H]2COc2ccc(C(=O)O)cc2)ccc1NC(=O)Nc1ccccc1C` (stereo in doubt) [Compound 151, 4-[trans-4-amino-1-[3-methoxy-4-[N′-(2-methylphenyl)ureido]phenylacetyl]-(2S)-pyrrolidinyl]methoxybenzoic acid] showed a melting point of 170 to 171 °C.
To `COc1cc(CC(=O)N(C)CCOc2ccc(C(=O)O)cc2N)ccc1NC(=O)Nc1ccccc1F` [Compound 292, 3-amino-4-[[2-[3-methoxy-4-[N′-(2-fluorophenyl)ureido]phenylacetyl]methylamino]ethoxy]benzoic acid] belongs 125 to 130 °C; to `CN[C@@H]1C[C@@H](COc2ccc(C(=O)O)cc2)N(C(=O)Cc2ccc(NC(=O)Nc3ccccc3C)c(OC)c2)C1` [Compound 153, 4-[trans-1-[3-methoxy-4-[N′-(2-methylphenyl)ureido]phenylacetyl]4-methylamino-(2S)-pyrrolidinyl]methoxybenzoic acid], 162 to 164 °C.
To `Cc1ccccc1NC(=O)Nc1ccc(CC(=O)N2C[C@@H](Oc3ccc(C(=O)O)cc3)C[C@H]2COc2ccc(C(=O)O)cc2)cc1` [Compound 119, 4-[(4S)-(4-carboxyphenoxy)-1-[4-[N′-(2-methylphenyl)uriedo]phenylacetyl]-(2S)-pyrrolidinylmethoxy]benzoic acid] belongs 157 to 160 °C.
To `COc1cc(CC(=O)N2C[C@@H](NS(=O)(=O)c3cccc4c(N(C)C)cccc34)C[C@H]2COc2ccc(C(=O)O)cc2)ccc1NC(=O)Nc1ccccc1Br` [Example 155, 4-[1-[4-[N′-(2-bromophenyl)ureido]-3-methoxyphenylacetyl]-4dansylamino-(2S)-pyrrolidinyl]methoxybenzoic acid] belongs 138 to 141 °C; to `COc1cc(CC(=O)N2C3CCCCC3C[C@H]2COc2ccc(C(=O)O)cc2)ccc1NC(=O)Nc1ccccc1Br` (stereo partly drawn) [Compound 167, 4-[1-[4-[N′-(2-bromophenyl)ureido]-3-methoxyphenylacetyl]-(2S)-octahydroindolylmethoxy]benzoic acid], 118 to 123 °C.
Take `COc1cc(CC(=O)N(C)CCOc2ccc(C(=O)O)cc2NC(C)C)ccc1NC(=O)Nc1ccccc1C` [Compound 285, 3-isopropylamino-4-[[2-[3-methoxy-4-[′-(2-methylphenyl)ureido]phenylacetyl]methylamino]ethoxy]benzoic acid]: the melting point fell in the range of 130 to 135 °C.
Turning to `Cc1ccccc1NC(=O)Nc1ccc(CC(=O)N2CCC[C@H]2COC2CCC(C(=O)O)CC2)cc1` (stereo partly drawn) [Compound 177, 4-[[1-[4-[N′-(2-methylphenyl)ureido]phenylacetyl]-(2S)-pyrrolidinyl]methoxy]cyclohexane carboxylic acid], the melting point is 107 to 111 °C.
With `COc1cc(CC(=O)N2C[C@H](N(C)C)C[C@H]2COc2ccc(C(=O)O)cc2)ccc1NC(=O)Nc1ccccc1Cl`, the melting point lay in the range of 159 to 161 °C.
To `COc1cc(CC(=O)N2CC[C@@H](Oc3ccc(C(=O)O)cc3)C2)ccc1NC(=O)Nc1ccccc1C` [Compound 185, 4-[1-[3-methoxy-4-[N′-(2-methylphenyl)ureido]phenylacetyl]-(3R)-pyrrolidinyloxy]benzoic acid] belongs 158 to 162 °C.
To `COc1cc(CC(=O)N(C)CCOc2ccc(C(=O)O)cc2N(C)C)ccc1NC(=O)Nc1ccccc1C` [Compound 276, 3-dimethylamino-4-[[2-[3-methoxy-4-[N′-(2-methylphenyl)ureido]phenylacetyl]methylamino]ethoxy]benzoic acid] belongs 125 to 130 °C; to `COc1cc(CC(=O)N2CCC[C@H]2COC2CCC(C(=O)O)CC2)ccc1NC(=O)Nc1ccccc1C` (stereo partly drawn) [Compound 174, 4-[[1-[3-methoxy-4-[N′(2-methylphenyl)ureido]phenylacetyl]-(2S)-pyrrolidinyl]methoxy]cyclohexanecarboxylic acid], 110 to 113 °C; to `COc1cc(CC(=O)N[C@@H](C)COc2ccc(C(=O)O)cc2Cl)ccc1NC(=O)Nc1ccccc1F` [Compound 281, (S)-3-chloro-4-[2-[3-methoxy-4-[N′-(2-fluorophenyl)ureido]phenylacetylamino]-1-propoxy]benzoic acid], 188 to 191 °C.
